{"source": "a melting point compilation (Tetko et al.; mined from patent text by program, amines drawn as free bases though some values may be those of a salt)", "data": [{"units": {"melting point": "°C"}, "values": [{"smiles": "CC#CCOc1ccc(S(=O)(=O)C2(C(=O)O)CCN(Cc3ccc(Cl)c(Cl)c3)CC2)cc1", "melting point": 213}, {"smiles": "CCOC(=O)C1=C(O)c2ccc3ccccc3c2S(=O)(=O)N1C", "melting point": "163 to 165"}, {"smiles": "CC(CN1CCN(c2ccc(C(=O)O)cc2)CC1)Oc1ccccc1", "note": "(stereo not drawn)", "melting point": "152 to 154"}, {"smiles": "COc1cc(F)ccc1-c1c(/C=C/C(=O)O)c2ccccc2c(=O)n1C(C)C", "melting point": "265 to 267"}, {"smiles": "CC1(c2cccc(N)c2)C2CN(Cc3ccccc3)C(=O)C21", "note": "(stereo not drawn)", "melting point": "150 to 151"}, {"smiles": "Cc1ccc(S(=O)(=O)OCC2(C)Cc3cc(Cl)cc(OS(=O)(=O)C(F)(F)F)c3O2)cc1", "note": "(stereo not drawn)", "melting point": "100 to 102"}, {"smiles": "CCCc1nc2c(N)nc3ccccc3c2n1CC1(O)CCOCC1", "melting point": "231 to 233"}, {"smiles": "Cn1c(=O)c(-c2c(Cl)cccc2Cl)cc2cnc(Nc3cccc(CO)c3)nc21", "melting point": "215 to 217"}, {"smiles": "CCCCCCCCCCCCCCCCCCNC(=O)C(=O)Nc1ccc(O)cc1", "melting point": 192}, {"smiles": "N#Cc1cccc(C(Cl)(Cl)Cl)c1Cl", "melting point": "106 to 107"}, {"smiles": "COc1cccc(Oc2cccnc2C(=O)NCCNC(=O)OC(C)(C)C)c1", "melting point": "81 to 82"}, {"smiles": "C(=C\\c1nc(COc2ccc(CCCn3ccnc3)cc2)co1)/c1ccccc1", "melting point": "127 to 128"}, {"smiles": "COC(=O)C1=CC=Nc2ccccc2C1", "melting point": "168 to 173"}, {"smiles": "O=C(O)Cc1ccc(CC2(CNS(=O)(=O)c3ccccc3)CCCC2)cc1", "melting point": "154 to 156"}, {"smiles": "CCOc1cc(C=O)cc2c1OC(C)(C)C2", "melting point": "33 to 36"}, {"smiles": "S=C1CN=C(c2ccccc2Cl)c2cc(CCc3ccc(Cl)cc3)sc2N1", "melting point": "201 to 203"}, {"smiles": "CN1CC(C(=O)CN2CCOCC2)CC2c3cccc4c3c(cn4C)CC21", "note": "(stereo not drawn)", "melting point": "198 to 200"}, {"smiles": "OC(Cn1cncn1)(Cn1cnc(C=Cc2ccc(C(F)(F)F)cc2)n1)c1ccc(Cl)cn1", "note": "(stereo not drawn)", "melting point": "159 to 161"}, {"smiles": "O[C@@H](CNCC1CCN(CCC(F)(F)F)CC1)COc1ccc(Br)c2[nH]c3ccccc3c12", "melting point": 79}, {"smiles": "C#CCOc1cc2ccccc2cc1COC(=O)C1CC1", "melting point": "58 to 60"}, {"smiles": "CC(=O)OC1CSC(Oc2cccc(-c3ccncc3Cl)c2)C(OC(C)=O)C1OC(C)=O", "note": "(stereo not drawn)", "melting point": "169 to 171"}, {"smiles": "N#Cc1nn(-c2c(Cl)cc(C(F)(F)F)cc2Cl)c(N)c1S(=O)(=O)c1ccc(Cl)cc1", "melting point": "90 to 95"}, {"smiles": "Oc1ccc(Sc2cccc(O)n2)cc1", "melting point": "234 to 238"}, {"smiles": "NC[C@H]1CCCN1C(c1ccccc1)(c1ccccc1)c1ccccc1", "melting point": 100}, {"smiles": "CC(C)CCOC(=O)C(C)Oc1cc(-c2nn(C)c(C(F)(F)F)c2Cl)c(F)cc1Cl", "note": "(stereo not drawn)", "melting point": 128}, {"smiles": "CC(=O)Nc1cc(C)cc(CCC(=O)O)n1", "melting point": 202}, {"smiles": "Nc1nnc(-c2ccc3ncn(-c4cccc(OC(F)(F)F)c4)c3c2)o1", "melting point": "215 to 216"}, {"smiles": "CSC(C)(C(=O)O)c1cccc(Oc2ccccc2)c1", "note": "(stereo not drawn)", "melting point": "87 to 88"}, {"smiles": "CC(C)OC(=O)C(O)C(CC1CCCCC1)NC(=O)C(Cc1c[nH]cn1)NC(=O)C(CCOc1ccc(F)cc1)Cc1cccc2ccccc12", "note": "(mixture of isomers)", "melting point": "87 to 91"}, {"smiles": "CCCCc1nnc2ccccc2c1O", "melting point": 180}, {"smiles": "OCc1coc(/C=C/c2ccccc2)n1", "melting point": "94 to 95"}, {"smiles": "COc1ccc2c(c1)c(CC(=O)OCC(=O)O)c(C)n2C(=O)c1ccccc1C(F)(F)F", "melting point": "121 to 122"}, {"smiles": "NS(=O)(=O)NCCc1ccccc1", "melting point": "61.8 to 62"}, {"smiles": "Cc1cc(C2(C(F)(F)F)CC(c3ccc(S(C)=O)cc3)=NO2)ccc1N", "note": "(stereo not drawn)", "melting point": "68.5 to 77"}, {"smiles": "COC(=O)CNC(=O)COc1ccc(C(C)=O)cc1", "melting point": "120 to 121"}, {"smiles": "CCCCC[C@H]1CC[C@H](CCc2ccc(O)c(C#N)c2C#N)CC1", "melting point": "100 to 102"}, {"smiles": "COc1ccc2[nH]c(SC/C=C(\\C)CCC=C(C)C)nc2c1", "melting point": "113 to 116"}, {"smiles": "CNC(=O)N(O)Cc1cccc(Nc2ccccc2C(=O)OC)c1Cl", "melting point": "143 to 145"}, {"smiles": "CCOC(=O)c1c(CCn2ccnc2)nc2cc(OC)c(OC)cc2c1-c1ccc(OC)c(OC)c1", "melting point": "173 to 174"}, {"smiles": "NCCCc1ccc(CCCN)nc1", "melting point": "116 to 119"}, {"smiles": "Cc1nc(-c2ccc(C#N)cc2)sc1C(=O)N[C@H](C)[C@](O)(Cn1cncn1)c1ccc(Cl)cc1Cl", "melting point": "109 to 113"}, {"smiles": "O=C(NCc1ncc(C(F)(F)F)cc1Cl)c1ccc(Br)o1", "melting point": 77.8}, {"smiles": "CNC(=O)ON(C(=O)NC)C(=O)C(C)(C)C", "melting point": "117 to 119"}, {"smiles": "N#CCCNC(=O)c1n[nH]cc1NC(=O)c1ccccc1", "melting point": "186 to 187"}, {"smiles": "Cc1c(N)noc1C(F)(F)C(F)(F)F", "melting point": "32 to 34"}, {"smiles": "Cc1c(NC(=O)c2ccc(-c3ccccc3)c(F)c2)ccc2cc(CN3CCCCC3)cnc12", "melting point": "138 to 139"}, {"smiles": "CCNCCNc1ccc(NCCN(CC)CC)c2c1C(=O)c1c(O)ccc(O)c1C2=O", "melting point": "161 to 163"}, {"smiles": "O=c1[nH]nc(-c2ccccc2)c(-c2ccccc2)c1S(=O)(=O)c1ccccc1", "melting point": "254 to 256"}, {"smiles": "CCCc1ccc(-c2ccc(=O)[nH]n2)cc1", "melting point": "180 to 182"}, {"smiles": "CCOC(=O)c1cc2c3cc4ccccc4cc3ccc2n1C", "melting point": "141 to 144"}, {"smiles": "ClC(Cl)(Cl)c1nc(-c2ccc(OCCCn3ccnc3)cc2)no1", "melting point": "102 to 103"}, {"smiles": "Fc1ccc(-c2cc(-c3ccccc3)c(-c3ccccc3)s2)cc1", "melting point": "108 to 110"}, {"smiles": "CCOC(=O)c1c(O)nc(SCC)n1C(C)C", "melting point": "82 to 84"}, {"smiles": "CS(=O)(=O)c1ccc(-c2nc(C(F)(F)F)nc(NN)c2-c2ccc(Cl)cc2)cc1", "melting point": "266 to 269"}, {"smiles": "COC(=O)c1[nH]c(=O)n(C(=O)NCCCN2CCN(c3ccccc3OC)CC2)c1-c1ccc(F)c(F)c1", "melting point": "122 to 124"}, {"smiles": "Cn1c(CC#N)ccc1C(=O)c1ccc(F)cc1", "melting point": "134 to 136"}, {"smiles": "CCc1oc2ccccc2c1C(=O)NCc1ccc2c(Br)c(OC(Cc3ccccc3)C(=O)O)ccc2c1", "note": "(stereo not drawn)", "melting point": "162 to 165"}, {"smiles": "OCC1OC(OCc2ccccc2)C(OCc2ccccc2)C1O", "note": "(stereo not drawn)", "melting point": "73 to 74"}, {"smiles": "COc1cc(OC)cc(-c2ncoc2-c2ccc(OC)c(O)c2F)c1", "melting point": "168 to 172"}, {"smiles": "O=C1CCc2cc3ccccc3n2C1", "melting point": "126 to 128"}, {"smiles": "N#Cc1nc2ccccc2n(-c2ccc(Cl)cc2)c1=O", "melting point": "232 to 235"}, {"smiles": "CCN1C(=O)C(C)(C)C(=O)N(C)c2cc(OCCCN3C(=O)Cc4ccccc43)ccc21", "melting point": "146 to 149"}, {"smiles": "COc1ccc2c3c1OC1C(=O)C(COS(=O)(=O)c4ccc(C)cc4)(COS(=O)(=O)c4ccc(C)cc4)CC4C(C2)N(C)CCC314", "note": "(stereo not drawn)", "melting point": "150 to 153"}, {"smiles": "CC(C)(C)OC(=O)N1CCC(c2nc3cc(-c4ccc(C(N)=O)c(Cl)c4)ccc3o2)CC1", "melting point": "169 to 171"}, {"smiles": "COC(COc1cccc2c(OCC(OC)OC)cccc12)OC", "melting point": 117}, {"smiles": "Cc1cc(C)n2nc(S(=O)(=O)N(C)c3c(Cl)cccc3Cl)nc2n1", "melting point": "220 to 222"}, {"smiles": "O=C(O)C1C2CCC(C2)C1NS(=O)(=O)c1ccccc1", "note": "(stereo not drawn)", "melting point": "157 to 159"}, {"smiles": "C=CCc1c(C)nc(C)c(C(=O)Nc2c(CC)cc(C)cc2CC)c1Cl", "melting point": "192 to 194"}, {"smiles": "O=Cc1cc2ccc3c4ccccc4ccc3c2s1", "melting point": "209 to 210"}, {"smiles": "Nc1sc2c(c1C(=O)c1ccc(Cl)cc1)CCN(CCc1ccc([N+](=O)[O-])cc1)C2", "melting point": "150 to 152"}, {"smiles": "O=C(Nc1cccc2c(=O)cc(C(=O)O)oc12)c1ccc2c(c1)CC(COCc1ccccc1)O2", "note": "(stereo not drawn)", "melting point": "184 to 188"}, {"smiles": "CC(C)(C)CC(=O)N[C@H]1CC[C@H](CCN2CCC(c3cccc4c3CCO4)CC2)CC1", "melting point": 193}, {"smiles": "CCCc1c(OCCCCCC(=O)NCCc2ccncc2)ccc(C(C)=O)c1O", "melting point": "80 to 83"}, {"smiles": "CC12CCC(C1)C1(C)Oc3ccc(C4(c5ccc(C(=O)O)cc5)OCCO4)cc3C21C", "note": "(stereo not drawn)", "melting point": "234 to 236"}, {"smiles": "CCOC(=O)COc1cc2cc(CC)sc2c(Cl)c1Cl", "melting point": "67 to 68"}, {"smiles": "CC(C)NCC(O)c1cnc(N)c(Cl)c1", "note": "(stereo not drawn)", "melting point": 146}, {"smiles": "CC(C)[Si](Oc1cc(C=O)c2c(c1)C1(C)CCN(C)C1N2C)(C(C)C)C(C)C", "note": "(stereo not drawn)", "melting point": "42 to 45"}, {"smiles": "N#Cc1c(OCc2ccc(F)cc2F)ccn(Cc2cccc(F)c2)c1=O", "melting point": "187 to 190"}, {"smiles": "COC(=O)c1cc(C(O)CN(C)C)ccc1OCc1ccccc1", "note": "(stereo not drawn)", "melting point": "79 to 81"}, {"smiles": "CCOC(OCC)c1ncn(C(c2ccccc2)(c2ccccc2)c2ccccc2)n1", "melting point": "120 to 124"}, {"smiles": "CC(C)Cn1c(=O)n(C)c(=O)c2c(Sc3nccs3)c(C(=O)c3ccnc4ccccc34)sc21", "melting point": "167 to 168"}, {"smiles": "O=C(O)c1ccc(N2C3CCC2CN(CC(=O)N2CC=C(c4cccc5ccsc45)CC2)C3)nc1", "melting point": "121 to 122"}, {"smiles": "COc1c(C#N)cc(-c2c3ccccc3cc3sc4ccccc4c23)cc1C#N", "melting point": "214 to 215"}, {"smiles": "Cc1cc(-c2ncn3c(C(F)(F)F)cc(-c4ccc(F)c(Cl)c4)nc23)ccn1", "melting point": 255}, {"smiles": "NC1Cc2cccc3c2C(C1)CN3C(=O)c1ccccc1", "note": "(stereo not drawn)", "melting point": "118 to 120"}, {"smiles": "CC(=O)OC(C)C(=O)Nc1ccc(C2=NNC(=O)CC2C)cc1", "note": "(stereo not drawn)", "melting point": "198 to 200"}, {"smiles": "N#Cc1c(OCC(F)(F)F)nc(C2CC2)nc1N1CCc2ccccc2CC1", "melting point": "116 to 118"}, {"smiles": "COc1ccc(-c2cc(C(F)(F)F)n(C)c2-c2ccc(OC)cc2)cc1", "melting point": "125 to 126"}, {"smiles": "O=C(O)CNC(=O)C1(CS)Cc2ccccc2C1", "melting point": "137 to 143"}, {"smiles": "COc1cccc(-c2cn3c(n2)CCc2ccccc2-3)c1", "melting point": "107 to 109"}, {"smiles": "COCN1C(C)=C(C(=O)OC)C(c2ccccc2C(F)(F)F)C(C(=O)OCOC(=O)C(C)(C)C)=C1C", "note": "(single isomer, unassigned; (+))", "melting point": "110 to 112"}, {"smiles": "Oc1ccc2nc(-c3cccc(Br)c3)oc2c1", "melting point": 248}, {"smiles": "O=C(O)C(Oc1ccc(N2CCCCC2)cc1)c1cccc(Cl)c1", "note": "(stereo not drawn)", "melting point": "149 to 151"}, {"smiles": "Cc1ccc(-c2nc(C(=O)O)c(C)s2)s1", "melting point": "160 to 161"}, {"smiles": "CCOC(=O)C1CCc2c(oc3cc(NC(C)=O)ccc23)C1", "note": "(stereo not drawn)", "melting point": "115 to 116"}, {"smiles": "Cc1c(SCCCCSCCn2c([N+](=O)[O-])cnc2C)ccnc1CSc1nc2ccccc2[nH]1", "melting point": "160 to 162"}, {"smiles": "CCCCOC(=O)Cc1nc(-c2ccccc2)oc1-c1ccsc1", "melting point": "71 to 72"}, {"smiles": "CN(C)C=CC(=O)c1ccc(C(F)(F)F)cc1[N+](=O)[O-]", "melting point": 101}]}]}
